Experimental data from patent EP1247803A2, “Indolinone compounds suitable for modulation of protein kinases” (Sugen, Inc., priority 1996, dated 1998).

Assays:
MET = MET biochemical kinase assay; set-up: species or system human; concentration or dose not given beside the values
From the text: A met biochemical kinase assay may be performed for met generally as described above for other kinases by substituting that or the other kinases. In particular, ELISA plates are coated with goat anti-rabbit Fc antibodies, which are used to capture commercially available (from Santa Cruz Biotechnology) rabbit polyclonal antibodies to the cytoplasmic domain of human MET. […] The chimeric receptors, or MET, from these lysates are captured on the antibody coated plates. After washing away extraneous proteins, test compounds are added and an in vitro kinase assay is performed by addition of an appropriate kinase buffer (containing ATP, divalent metal ions, etc.). Incorporation of phosphate into the captured receptors is detected with an anti-phosphotyrosine antibody conjugate with horse radish peroxidase using TMB as a substrate for colorimetric detection.

EGFR = biological target: T1, EGFR (Homo sapiens, UniProt P00533); test: EGFR ELISA assay (in vitro kinase activity, EGFR captured from A431 cell lysate); format: biochemical; set-up: concentration or dose not given beside the values
T1 construct: Add 7 ug A431 cell lysate per well (EGFR source); endogenous in cells; host or cells: A431
From the text: To provide a consistent method for measuring the in vitro kinase activity of the EGFR in an Enzyme-linked immunosorbent assay (Elisa).
Scope. The following protocol describes the procedures used to analyze protein tyrosine kinase activity on the EGFR in an Elisa. The procedure also describes the protocol for the initial screening of drugs for inhibition or activation of protein tyrosine kinase activity.
Reagents and Supplies. • 1. […] 05-101 monoclonal anti-EGFR antibody (commercially available from UB1) -80° C, 1 ml aliquots • 3. […] TBST Buffer Formulation: 50 mM Tris pH 7.2 150 mM NaCl 0.1% Triton X-100 • 5. Blocking Buffer Formulation: 5% Carnation Instant Milk in PBS • 6. A431 cell lysate A431 cells are available from a variety of commercial sources and may be used lysed using conventional methods known to those skilled in the art or as described for lysis of the 3T3 cells in the EGF cellular assay described herein. -80° C, 1 ml aliquots • 7. TBS Buffer Formulation: 50 mM Tris pH 7.2 150 mM NaCl • 8. […] NUNC 96-well V bottom polypropylene plates Applied Scientific Catalog # AS-72092 • 11. EDTA Formulation: 200 mM EDTA pH 8.0 • 12. […] Goat anti-rabbit IgG peroxidase conjugate Biosource Catalog # ALI0404 • 14. ABTS Solution Formulation: 100 mM Citric Acid (anhydrous) 250 mM Na2HPO4 pH 4.0 0.5 mg/ml ABTS (2,2'-azino-bis(3-ethylbenzthiazoline-6-sulfonic acid) (Sigma Catalog # A-1888) Keep solution in dark at 4 C until ready to use • 15. Hydrogen peroxide 30% solution Fisher Catalog # H325 Store in the dark at 4 C until ready to use • 16. ABTS/H2O2 Formulation: 15 mls ABTS solution 2 ul H2O2 Prepare 5 minutes before use and room temperature • 17. 0.2 M HCL stock in H2O Procedure. • 1. Coat Corning 96-well elisa plates with 0.5 ug per well 05-101 antibody. Bring final volume to 100 ul per well with PBS. Coat plates overnight at 4° C. • 2. Remove unbound 05-101 from wells by inverting plate to remove liquid. Wash 1x with distilled H2O by filling wells Pat the plate on a paper towel to remove excess liquid. • 3. Block plates with 5% milk in PBS. 150 ul per well. Incubate plate 30 minutes while shaking on a microtiter plate shaker. • 4. Wash plate 3x with dionized water, then once with TBST • 5. Add 7 ug A431 cell lysate per well (EGFR source). Add PBS to final volume of 100 ul per well Incubate 30 minutes while shaking. • 6. Wash as described in step 4. • 7. At this point, drugs or extracts are added to the wells. Dilute drugs/extracts 1:100 (unless specified otherwise) in TBS + 10% DMSO in 96-well polypropylene plates. Add 120 ul TBS to ELISA plate containing captured EGFR. Add 13.5 ul diluted drugs/extracts to ELISA plate. […] Incubate plate 30 minutes while shaking. • 8. […] (150 ul final volume in well with 3 uM ATP/5 mM MnCl2 final concentration in well.) Incubate 5 minutes while shaking vigorously. *NOTE: It is critical that ATP/MnCl2 phosphorylates the receptor for 5 minutes only. It is best to add the ATP/MnCl2 with an 12 channel pipettor 1 row at a time leaving 20 seconds between each row so that the reaction may be stopped with EDTA exactly 5 minutes later (this depends on the number of plates being phosphorylated in one batch). Shake between each addition. • 9. After 5 minutes, to stop reaction, add 16.5 ul of 200 mM EDTA pH 8.0 for 20 mM final in well, shaking continuously between each addition. This is done using the same timing method as above. After last row has received EDTA, shake plate an additional minute. • 10. Wash 4x with deionized water, twice with TBST. • 11. Add rabbit polyclonal anti-phosphotyrosine serum. Dilute 1:3000 in TBST. Add 100 ul per well. Incubate 30-45 minutes while shaking. • 12. Wash as described above in step 4. • 13. Add BioSource anti-rabbit peroxidase conjugate antibody. Dilute 1:2000 in TBST. Add 100 ul per well. Incubate 30 minutes while shaking. • 14. Wash as described in step 4. • 15. Add 100 ul of ABTS/H2O2 solution to well. Incubate 5 to 10 minutes while shaking. Remove bubbles • 16. […]

T1 sequence (P00533 25-1210): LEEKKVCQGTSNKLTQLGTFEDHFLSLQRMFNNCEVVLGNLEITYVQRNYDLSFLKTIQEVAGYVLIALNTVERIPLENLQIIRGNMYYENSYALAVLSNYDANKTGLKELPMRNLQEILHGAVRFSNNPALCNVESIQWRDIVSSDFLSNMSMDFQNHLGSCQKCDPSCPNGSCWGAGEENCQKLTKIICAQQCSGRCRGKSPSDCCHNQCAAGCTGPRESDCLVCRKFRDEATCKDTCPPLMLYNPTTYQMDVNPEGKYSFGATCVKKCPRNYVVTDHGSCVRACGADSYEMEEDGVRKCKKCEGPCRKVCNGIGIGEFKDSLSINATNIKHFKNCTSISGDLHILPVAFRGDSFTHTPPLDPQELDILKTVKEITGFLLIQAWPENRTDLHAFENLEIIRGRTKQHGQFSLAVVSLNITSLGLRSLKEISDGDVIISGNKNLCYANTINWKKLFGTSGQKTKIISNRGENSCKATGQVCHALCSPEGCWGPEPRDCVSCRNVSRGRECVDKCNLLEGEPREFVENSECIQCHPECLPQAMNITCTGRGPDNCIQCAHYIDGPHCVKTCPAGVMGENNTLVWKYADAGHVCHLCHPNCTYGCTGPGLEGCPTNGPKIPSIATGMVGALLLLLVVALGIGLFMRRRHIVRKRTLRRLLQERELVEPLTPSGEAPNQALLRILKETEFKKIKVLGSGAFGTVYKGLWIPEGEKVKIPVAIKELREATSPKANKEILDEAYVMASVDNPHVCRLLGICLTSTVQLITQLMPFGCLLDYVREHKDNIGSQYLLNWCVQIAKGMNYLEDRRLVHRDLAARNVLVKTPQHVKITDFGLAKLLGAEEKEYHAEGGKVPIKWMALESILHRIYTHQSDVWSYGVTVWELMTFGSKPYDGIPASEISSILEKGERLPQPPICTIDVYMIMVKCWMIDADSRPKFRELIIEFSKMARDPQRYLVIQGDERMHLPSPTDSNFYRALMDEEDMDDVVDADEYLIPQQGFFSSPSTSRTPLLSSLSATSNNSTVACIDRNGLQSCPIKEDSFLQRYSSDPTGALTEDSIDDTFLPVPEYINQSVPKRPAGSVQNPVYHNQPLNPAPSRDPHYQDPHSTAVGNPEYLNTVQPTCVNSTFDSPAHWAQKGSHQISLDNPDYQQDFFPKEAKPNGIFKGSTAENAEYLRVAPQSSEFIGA

Compound | Met Kinase % Inhibition (MET) [%] | Biochem EGFR %Inhibition (EGFR) [%]
COc1c(C(C)C)cc(C=C2C(=O)Nc3ccc(Br)c(C)c32)cc1C(C)C [10732/C03] | 14.0 | 1.4
CCn1c2ccccc2c2cc(C=C3C(=O)Nc4ccc(S(=O)(=O)Nc5ccc(C(F)(F)F)cc5)cc43)ccc21 [10731/E02] | 49.1 | 7.9
CNS(=O)(=O)c1ccc2c(c1)C(=Cc1ccc3ccccc3c1O)C(=O)N2 [10718/D04] | 92.9 | 52.0
CC(C)(C)c1cc(C=C2C(=O)Nc3ccc(I)cc32)cc(Cl)c1OCc1ccccc1 [10732/B10] | 51.5 | 0.6
COc1ccc(C=C2C(=O)Nc3ccc(I)cc32)cc1C(C)(C)C [10732/B05] | 71.2 | 17.0
CNS(=O)(=O)c1ccc2c(c1)C(=Cc1cc(OC)cc(Br)c1O)C(=O)N2 [10718/D03] | 92.9 | 61.9
CNS(=O)(=O)c1ccc2c(c1)C(=Cc1ccc(OCc3ccccc3)c(C(C)(C)C)c1)C(=O)N2 [10732/D06] | 24.3 | 3.6
O=C1Nc2c(Br)cc(Br)cc2C1=CC(c1cccs1)C(F)(F)F (stereo not shown) [10732/A02] | 53.7 | 5.1
C=C(C)C1CC=C(C=C2C(=O)Nc3ccc(S(=O)(=O)Nc4ccc(C(F)(F)F)cc4)cc32)CC1 (stereo not shown) [10731/E04] | 55.6 | 13.6
CCn1c2ccccc2c2cc(C=C3C(=O)Nc4ccc(S(=O)(=O)N5CCOCC5)cc43)ccc21 [10731/F02] | 47.5 | 17.7
Cc1c(Br)ccc2c1C(=Cc1ccc([N+](=O)[O-])o1)C(=O)N2 [10718/C11] | 10.1 | -0.2
CNS(=O)(=O)c1ccc2c(c1)C(=Cc1cc(Br)c(OCc3ccccc3)c(C(C)(C)C)c1)C(=O)N2 [10732/D08] | 49.4 | -20.6
O=C1Nc2ccc(CCCl)cc2C1=Cc1c[nH]c(=O)[nH]c1=O [10731/G08] | 19.5 | 13.3
C=C(C)C1CC=C(C=C2C(=O)Nc3ccc(CCCl)cc32)CC1 (stereo not shown) [10731/G04] | 23.3 | 7.1
CNS(=O)(=O)c1ccc2c(c1)C(=Cc1cc(Cl)c(OCc3ccccc3)c(C(C)(C)C)c1)C(=O)N2 [10732/D10] | 33.1 | -16.6
CNS(=O)(=O)c1ccc2c(c1)C(=Cc1ccc(OC)c(C(C)(C)C)c1)C(=O)N2 [10732/D05] | 30.2 | -36.7
CCOC(=O)c1c(C)[nH]c(C=C2C(=O)Nc3ccc(S(=O)(=O)NC)cc32)c1C [10718/D02] | 32.0 | 14.4
COc1c(I)cc(C=C2C(=O)Nc3c(Br)cc(Br)cc32)cc1C(C)(C)C [10732/A11] | 65.3 | 1.8
CN1C(=O)C(=C2C(=O)Nc3ccc(CCCl)cc32)c2ccccc21 [10731/G10] | 10.3 | 5.5

Compound | Met Kinase % Inhibition (MET) [%] | Biochem EGFR %Inhibition (EGFR) [%]
CCOC(=O)CCc1c(C(=O)OCC)[nH]c(C=C2C(=O)Nc3ccc(S(=O)(=O)NC)cc32)c1CC(=O)OCC [10718/D05] | 10.6 | 2.8
Cc1cc2occ(C=C3C(=O)Nc4ccc(S(=O)(=O)N5CCOCC5)cc43)c(=O)c2cc1C [10731/F03] | 40.6 | 8.4
COc1c(I)cc(C=C2C(=O)Nc3ccc(Br)c(C)c32)cc1C(C)(C)C [10732/C11] | 31.9 | -5.0
COc1c(Br)cc(C=C2C(=O)Nc3c(Br)cc(Br)cc32)cc1C(C)(C)C [10732/A07] | 26.1 | -0.3
CC(C)(C)c1cc(C=C2C(=O)Nc3ccc(I)cc32)cc(Br)c1OCc1ccccc1 [10732/B08] | 64.4 | 7.8
C=C(C)C1CC=C(C=C2C(=O)Nc3ccc(S(=O)(=O)N4CCOCC4)cc32)CC1 (stereo not shown) [10731/F04] | 17.0 | 5.0
Cc1c(Br)ccc2c1C(=Cc1cc(Cl)c(OCc3ccccc3)c(C(C)(C)C)c1)C(=O)N2 [10732/C10] | 43.0 | 1.2
CCOC(=O)c1cc(C=C2C(=O)Nc3ccc(S(=O)(=O)NC)cc32)oc1C [10718/D06] | 11.1 | 20.0
CNS(=O)(=O)c1ccc2c(c1)C(=CC(c1cccs1)C(F)(F)F)C(=O)N2 (stereo not shown) [10732/D02] | 50.2 | 8.7
CC(C)(C)c1cc(C=C2C(=O)Nc3c(Br)cc(Br)cc32)ccc1OCc1ccccc1 [10732/A06] | 5.7 | -1.4
Cc1c(Br)ccc2c1C(=CC(c1cccs1)C(F)(F)F)C(=O)N2 (stereo not shown) [10732/C02] | 40.1 | -6.5
CC(C)c1cc(C=C2C(=O)Nc3c(Br)cc(Br)cc32)cc(C(C)C)c1Oc1ccccc1 [10732/A04] | 34.8 | -10.6
O=C1Nc2ccc(S(=O)(=O)Nc3ccc(C(F)(F)F)cc3)cc2C1=Cc1coc2ccc([N+](=O)[O-])cc2c1=O [10731/E07] | 45.9 | 38.4
CC(C)c1ccc2occ(C=C3C(=O)Nc4ccc(CCCl)cc43)c(=O)c2c1 [10731/G05] | 72.4 | 18.5
O=C1Nc2ccc(I)cc2C1=CC(c1cccs1)C(F)(F)F (stereo not shown) [10732/B02] | 78.0 | -26.0
CNS(=O)(=O)c1ccc2c(c1)C(=Cc1c[nH]c3ccc(OC)cc13)C(=O)N2 [10731/D09] | 23.9 | 12.6
Cc1c(Br)ccc2c1C(=Cc1ccc(OCc3ccccc3)c(C(C)(C)C)c1)C(=O)N2 [10732/C06] | 21.6 | -43.2
CNS(=O)(=O)c1ccc2c(c1)C(=Cc1c[nH]c(=O)[nH]c1=O)C(=O)N2 [10731/D08] | 44.2 | 16.8
COc1ccc2[nH]cc(C=C3C(=O)Nc4ccc(S(=O)(=O)Nc5ccc(C(F)(F)F)cc5)cc43)c2c1 [10731/E09] | 27.0 | 17.2
